≈ marks a conversion by molar mass, not a printed value.
Legend:
[1] = tested on: male subjects with erectile dysfunction (ED); assay: Phase IIb study in erectile dysfunction, IIEF-15 questionnaire efficacy; type: in vivo, humans
From the text: (§1) The study investigated the effects of repeat single oral doses of IP2015 on male subjects with erectile dysfunction (ED) on ability to develop and maintain an erection, as well as safety and tolerability of single oral doses of IP2015, effects on penile rigidity and tumescence during visual stimulation, effects on sperm count and motility, and any possible relationship between plasma levels of IP2015, its efficacy and safety.
(§2) 130 subjects were divided into 3 groups upon which the study was conducted in parallel. Each subject was dosed on four occasions with either 5 mg IP2015, 10 mg IP2015 or matched placebo. In each group, subjects were randomized evenly to each of the three study treatments and received the same treatment at each visit.
The study lasted approximately 8 weeks and consisted of the following: • A screening visit (up to 21 days prior to the baseline visit) • A baseline visit (Day -7) • Outpatient visits on Week 1 (Day 1), Week 2, Week 3 and Week 4 • A follow-up visit a minimum of 7 to 10 days after their final dose.
(§3) On Day -7, and at Week 1 (Day 1), Week 2, Week 3, Week 4 and Follow-up visits, all groups were asked to complete the IIEF-15 questionnaire. Group 2 was asked to complete a Visual Stimulation Assessment using a RigiScan Plus Monitor on Day -7, Week 1 (Day 1) and Week 4. Group 2 was also required to provide blood samples for pharmacokinetic assessment on Week 1 (Day 1) and Week 4. Group 3 was required to provide semen samples on Day -7 and Week 4.
The patients were otherwise healthy male subjects with ED as determined from an IIEF-5 score of ≤16, with a body mass index of 18 to 35 kg/m^2 (inclusive), of any ethnic origin. Subjects were aged between 18 to 59 years, inclusive.
(§4) There were three potential study treatments of 5 mg IP2015, 10 mg IP2015 or matched placebo. In each group, subjects were randomized evenly to each of the three study treatments and received the same treatment on each visit. IP2015 or matched placebo was administered once in the morning of Week 1 (Day 1), Week 2, Week 3, and Week 4 as an oral solution in the fasted state. The dose was taken with 240 mL of water at room temperature. Subjects had fasted 2 hours prior to dosing until 4 hours post-dose. Water was allowed ad libitum except for 1 hour before and 1 hour after dosing.
(§5) Efficacy was assessed through the International Index of Erectile Function (IIEF)-15 questionnaire. The change from baseline in responses to questions of the IIEF-15 questionnaire, including questions regarding erectile function, orgasmic function, sexual desire, intercourse satisfaction and overall satisfaction domain scores, was determined at different time points of the study. RigiScan assessments during the stimulus assessment, and sperm count and motility by semen sample collection was used for efficacy evaluation. Safety was assessed through AE reporting, 12-lead ECG, vital signs, physical examinations, and clinical laboratory evaluations. Pharmacokinetics was assessed by blood sampling.
The results are means±SE. The statistical differences were performed with Mixed Model Repeated Measures (MMRM).

[2] = Solubility of IP2015 in aqueous and non-aqueous vehicles (visual, HPLC content); type: physicochemical
Method: Solubility of IP2015 was determined in both aqueous and non-aqueous vehicles. In non-aqueous liquids, the solubility was visually confirmed in progressive dilutions. The solubility of IP2015 in pH specific aqueous solutions was evaluated, the solubility was visually confirmed, and the content was evaluated by HPLC. Table 2. Solubility of IP2015 in different media.

[3] = tested on: male subjects with erectile dysfunction (ED); assay: Phase IIb study in erectile dysfunction, treatment-emergent adverse events and semen analysis; type: in vivo, humans
From the text: as §1, §2, §3, §4, §5

[4] = 5 mg IP2015 oral solution, overall score, tendency to difference
[5] = pH 5.8 Potassium Phosphate buffer
[6] = pH 6.8 Potassium Phosphate buffer
[7] = pH 7.5 Potassium Phosphate buffer

For `COc1cc2ccc(O[C@@H]3C[C@H]4CC[C@@H](C3)N4)cc2oc1=O` [IP2015, Exo-7-[(-8-azabicyclo[3.2.1]octan-3-yl)oxy]-3-methoxy-chromen-2-one], the “overall response to questions of IIEF-15, p versus baseline” value ([1]; 5 mg IP2015 oral solution, at follow-up, significant) was 0.0046, the “overall response to questions of IIEF-15, p versus placebo” value ([1]; 5 mg IP2015 oral solution, at follow-up, tendency) was 0.07 and the “Q4 in the IIEF-15, overall score, p compared to placebo” value ([1]; 5 mg IP2015 oral solution, overall score, no difference) was 0.44. The “overall response to questions of IIEF-15, overall score, p versus baseline” value ([1]; 5 mg IP2015 oral solution, overall score, significant) was 0.0032, the “overall response to questions of IIEF-15, overall score, p versus placebo” value ([1]; 5 mg IP2015 oral solution, overall score, tendency) was 0.10 and the “Q3 in the IIEF-15, overall score, p versus baseline” value [1, 4] was 0.07. For the same compound, the “Q3 in the IIEF-15, overall score, p versus placebo” value [1, 4] was 0.07, the “Q4 in the IIEF-15, overall score, p versus baseline” value [1, 4] was 0.056 and the “Q3 in the IIEF-15, p versus baseline” value ([1]; 5 mg IP2015 oral solution, week 3, MMRM, significant) was 0.046. For the same compound, the “Q3 in the IIEF-15, p versus placebo” value ([1]; 5 mg IP2015 oral solution, week 3, change from baseline, MMRM, significant) was 0.034, the “overall IIEF-15 score, score change” value ([1]; low dose (5 mg) of IP2015, called clinically significant) was 2 and the solubility ([2]; 0.1n hcl, pH 1.2 HCl (0.1N)) was 17 µg/mL (≈ 0.0564 mM). For the same compound, the “Inference (Ph.Eur)” value ([2]; N,N-dimethyl acetamide) was “Very slightly soluble”, the “Inference (Ph.Eur)” value ([2]; N-methyl-2-pyrrolidone) was “Very slightly soluble” and the solubility ([2]; aqueous solutions across physiological pH) was < 1000 µg/mL. The “Inference (Ph.Eur)” value ([2]; dimethyl sulfoxide) was “Slightly soluble”, the solubility ([2]; dimethyl sulfoxide) was 5000 to 10000 µg/mL (≈ 16.6 to 33.2 mM) and the “Inference (Ph.Eur)” value ([2]; ethanol) was “Very slightly soluble”. For the same compound, the solubility ([2]; ethanol) was < 1000 µg/mL, the “Inference (Ph.Eur)” value ([2]; glycerine) was “Very slightly soluble” and the solubility ([2]; glycerine) was < 1000 µg/mL. The solubility ([2]; n,n-dimethyl acetamide) was < 1000 µg/mL, the solubility ([2]; n-methyl-2-pyrrolidone) was < 1000 µg/mL and the “Inference (Ph.Eur)” value ([2]; pH 1.2 HCl (0.1N)) was “Very slightly soluble”. The “Inference (Ph.Eur)” value ([2]; pH 3.0 Acetate buffer) was “Slightly soluble”, the solubility ([2]; pH 3.0 Acetate buffer) was 1170 µg/mL (≈ 3.89 mM) and the “Inference (Ph.Eur)” value ([2]; pH 3.0 Citrate buffer) was “Very slightly soluble”. The solubility ([2]; pH 3.0 Citrate buffer) was 839 µg/mL (≈ 2.78 mM), the “Inference (Ph.Eur)” value ([2]; pH 4.0 Citrate buffer) was “Very slightly soluble” and the solubility ([2]; pH 4.0 Citrate buffer) was 849 µg/mL (≈ 2.82 mM). For the same compound, the “Inference (Ph.Eur)” value ([2]; pH 4.5 Acetate buffer) was “Very slightly soluble”, the solubility ([2]; pH 4.5 Acetate buffer) was 981 µg/mL (≈ 3.26 mM) and the “Inference (Ph.Eur)” value [2, 5] was “Very slightly soluble”. The solubility [2, 5] was 104 µg/mL (≈ 0.345 mM), the “Inference (Ph.Eur)” value [2, 6] was “Very slightly soluble” and the solubility [2, 6] was 146 µg/mL (≈ 0.484 mM). The “Inference (Ph.Eur)” value [2, 7] was “Very slightly soluble”, the solubility [2, 7] was 84 µg/mL (≈ 0.279 mM) and the “Inference (Ph.Eur)” value ([2]; polyethylene glycol 400) was “Very slightly soluble”. The solubility ([2]; polyethylene glycol 400) was < 1000 µg/mL, the “Inference (Ph.Eur)” value ([2]; propylene glycol) was “Slightly soluble” and the solubility ([2]; propylene glycol) was 1000 to 5000 µg/mL (≈ 3.32 to 16.6 mM). The “Inference (Ph.Eur)” value ([2]; purified water) was “Very slightly soluble”, the solubility ([2]; purified water) was 738 µg/mL (≈ 2.45 mM) and the “Any TEAE, figure after the comma” value ([3]; IP2015 5mg, N=42) was 61. For the same compound, the “Any TEAE, n (%)” value ([3]; IP2015 5mg, N=42) was 32 (76.2 %), the “TEAE Dizziness, figure after the comma” value ([3]; IP2015 5mg, N=42) was 3 and the “TEAE Dizziness, n (%)” value ([3]; IP2015 5mg, N=42) was 3 (7.1 %). The “TEAE Headache, figure after the comma” value ([3]; IP2015 5mg, N=42) was 15, the “TEAE Headache, n (%)” value ([3]; IP2015 5mg, N=42) was 11 (26.2 %) and the “TEAE Mild, figure after the comma” value ([3]; IP2015 5mg, N=42) was 56. The “TEAE Mild, n (%)” value ([3]; IP2015 5mg, N=42) was 29 (69.0 %), the “TEAE Moderate, figure after the comma” value ([3]; IP2015 5mg, N=42) was 5 and the “TEAE Moderate, n (%)” value ([3]; IP2015 5mg, N=42) was 3 (7.1%). The “TEAE Nausea, figure after the comma” value ([3]; IP2015 5mg, N=42) was 1, the “TEAE Nausea, n (%)” value ([3]; IP2015 5mg, N=42) was 1 (2.4 %) and the “TEAE Related*, figure after the comma” value ([3]; IP2015 5mg, N=42) was 19. The “TEAE Related*, n (%)” value ([3]; IP2015 5mg, N=42) was 10 (23.8 %), the “TEAE Severe” value ([3]; IP2015 5mg, N=42) was 0 and the “Any TEAE, figure after the comma” value ([3]; IP2015 10 mg, N=43) was 141. For the same compound, the “Any TEAE, n (%)” value ([3]; IP2015 10 mg, N=43) was 34 (79.1 %), the “TEAE Dizziness, figure after the comma” value ([3]; IP2015 10 mg, N=43) was 15 and the “TEAE Dizziness, n (%)” value ([3]; IP2015 10 mg, N=43) was 12 (27.9 %). For the same compound, the “TEAE Headache, figure after the comma” value ([3]; IP2015 10 mg, N=43) was 27, the “TEAE Headache, n (%)” value ([3]; IP2015 10 mg, N=43) was 16 (37.2 %) and the “TEAE Mild, figure after the comma” value ([3]; IP2015 10 mg, N=43) was 132. The “TEAE Mild, n (%)” value ([3]; IP2015 10 mg, N=43) was 33 (76.7%), the “TEAE Moderate, figure after the comma” value ([3]; IP2015 10 mg, N=43) was 9 and the “TEAE Moderate, n (%)” value ([3]; IP2015 10 mg, N=43) was 7 (16.3%). For the same compound, the “TEAE Nausea, figure after the comma” value ([3]; IP2015 10 mg, N=43) was 15, the “TEAE Nausea, n (%)” value ([3]; IP2015 10 mg, N=43) was 8 (18.6 %) and the “TEAE Related*, figure after the comma” value ([3]; IP2015 10 mg, N=43) was 84. The “TEAE Related*, n (%)” value ([3]; IP2015 10 mg, N=43) was 23 (53.5 %), the “TEAE Severe” value ([3]; IP2015 10 mg, N=43) was 0 and the severe side effects ([3]; any of the doses (5 mg, 10 mg)) was “No severe side effects were observed”. The Treatment-emergent adverse effects ([3]; low-dose (5 mg)) was “comparable to the placebo group”.

— patent EP4731189B1, “SOLID ORAL FORMULATION OF PUDAFENSINE” (Initiator Pharma A/S, priority 2023, dated 2024)
